The target of test [1] is T1, HLA-A*02:06 molecule (Homo sapiens, UniProt P04439, D140Y/D185E/D98H/E176V/E277Q/F33Y/G131W/G231S/I119V/I121R/I166T/I218V/L300P/L318F/N151K/N90K/P208A/P217A/Q86G/Q94H/R138H/R169H/T345S).
T1 construct: expressed in transfected cells; host or cells: RA2.6 cells (mouse TAP-deficient RMAS transfected with HLA-A*02:06 cDNA, Kochi University)
Put plainly: Binding experiment of peptide to HLA-A*02:06 molecule (RA2.6 cells, flow cytometry). To be noted: for Binding Experiment Data To A*02:06: RA2.6 cells, negative values as printed (apparently log Kd). On the procedure: The binding capacity of each peptide to the HLA-A*02:06 molecule as the product of HLA-A*02:06 gene was measured using RA2.6 cells (a cell line newly prepared at Kochi University) in which cDNA of the HLA-A*02:06 gene was introduced into RMAS as a mouse TAP (transporter associated with antigen processing)-deficient cell line.
First, the RA2.6 cells were cultured overnight at 26° C. to accumulate the HLA-A*02:06 molecules unbound to the peptide on the cell surface. Any of peptide dilution series was added thereto for binding at 26° C. for 60 minutes.
Subsequently, the mixture was cultured at 35° C. for 4 hours, resulting in the denaturation of the empty HLA-A*02:06 molecule unbound to the peptide and the loss of its steric structure. A fluorescent labeled monoclonal antibody, BB7.2, specifically recognizing a peptide-bound HLA-A*02:06 molecule, was added thereto, which was then incubated on ice for 20 minutes to stain the cells.

Test [2] deals with HLA-A*24:02 molecule (Homo sapiens, UniProt P04439, D101N/D140Y/D185E/E176V/E190D/F33S/G103R/G107R/I119L/I121M/I306V/K335N/L105A/L180Q/L300P/N151K/N90K/Q86E/Q94H/R106L/R138H/R89G/T104I/T345S/V100E/W191G/Y123F). Put plainly: Binding experiment of peptide to HLA-A*24:02 molecule (C1R-A24 cells, flow cytometry). Particulars: for Binding Experiment Data To A*24:02: C1R-A24 cells, on ice 4 hours, negative values as printed (apparently log Kd). On the procedure: The binding capacity of each peptide to the HLA-A*24:02 molecule as the product of HLA-A*24:02 gene was measured using C1R-A24 cells expressing the HLA-A*24:02 molecule (the cells prepared by Prof. Masafumi Takeguchi, Kumamoto University were gifted by Assoc. Prof. Masaki Yasukawa, Ehime University with permission).
First, C1R-A24 cells were exposed to acidic conditions of pH 3.3 for 30 seconds to dissociate and remove endogenous peptides which were originally bound to the HLA-A*24:02 molecule and a light chain, β2m, which was commonly associated with HLA class I molecules. After neutralization, purified β2m was added to the C1R-A24 cells, which was then added to peptide dilution series. The mixtures were each then incubated on ice for 4 hours. The 3-molecule assembly (MHC-pep) consisting of the HLA-A*24:02 molecule, the peptide, and β2 m which had been reassociated during the incubation was stained with a fluorescent labeled monoclonal antibody, 17A12, recognizing the assembly.
Subsequently, the number of MHC-pep's per C1R-A24 cell (which is proportional to the fluorescent intensity of the above fluorescent antibody) was quantitatively measured using a fluorescent cell analyzer, FACScan (Becton, Dickinson and Company). The binding dissociation constant, Kd value, between the HLA-A*24:02 molecule and the peptide was calculated from the average fluorescent intensity per cell using a method as published in a paper (Udaka et al., Immunogenetics, 51, 816-828, 2000) by the present inventor.
On the technique in general: A flow cytometer gives signals particle by particle.

The target of test [3] is HLA-A*02:01 molecule (Homo sapiens, UniProt P04439, D140Y/D185E/D98H/E176V/E277Q/G131W/G231S/I119V/I121R/I166T/I218V/L300P/L318F/N151K/N90K/P208A/P217A/Q86G/Q94H/R138H/R169H/T345S). The test is described as follows: Binding experiment of peptide to HLA-A*02:01 molecule (T2 cells, flow cytometry). Particulars: for Binding Experiment Data To A*02:01: T2 cells, 37° C. 4 hours, negative values as printed (apparently log Kd). On the procedure: T2 cells and purified β2m were added to stepwise dilution series of a peptide whose binding capacity was to be measured, which was then incubated at 37° C. for 4 hours.
Thereafter, the amount of fluorescence per cell was measured using a flow cytometer, and the dissociation constant, Kd value, was calculated using a method as published in a paper by the present inventor (Udaka et al., Immunogenetics, 51, 816-828, 2000).

In test [4] the test system is CD8T cells from liver cancer patients. Put plainly: Immunity induction test of peptide (IFN-γ ELISPOT / ELISA, peptide-stimulated dendritic cells cocultured with CD8T cells). It is filed as cell-based, human. Here is the method:
Monocytes were separated from the peripheral blood collected from a hepatocellular cancer patient according to a leukapheresis method. The separated monocytes were cultured for 6 days under addition of 800 U/ml GM-CSF and 500 U/ml IL-4. In addition, 300 U/ml TNF-α was added to the culture solution, which was then cultured for 4 days to induce mature dendritic cells. Subsequently, HSP70 mRNA was introduced thereinto by an electroporation method and thereby dendritic cells having presented an HSP70-derived antigen peptide were prepared.
Dendritic cells into which 1×10^7, 2×10^7, or 3×10^7 HSP70 mRNAs were introduced (HSP70-dendritic cells) were administered into the thigh of the hepatocellular cancer patient by subcutaneous injection (HSP70 dendritic cell therapy). The subcutaneous administration of the HSP70-dendritic cells prepared by the same method was repeated every 3 weeks. […]
Using CD8 Negative Selection Kit (from Miltenyi Biotec), CD8T cells were separated from the medium and counted. […]
A culture supernatant at day 7 after coculture of T cells with dendritic cells pulsed with each of the above peptides was diluted to the 4 levels of ×1, ×5, ×25, and ×125 to identify the dilution level falling within the limit of measurement using Human IFN-γ ELISA MAX Deluxe Set (from BioLegend Inc.). Thereafter, each sample was measured 3 times at the identified dilution level. […]
A general note: In an ELISA, binding on a coated surface is turned into a signal by an enzyme label.

Ends that are not written are not given here.

With AMTKDNNLL [SEQ ID NO: 9], the “Binding Experiment Data To A*02:06” value in test [1] is recorded as −4.276. Besides, in test [2], the “Binding Experiment Data To A*24:02” value is −5.492. Moreover, the “Binding Experiment Data To A*02:01” value in test [3] is reported as −5.56.

As for AQIHDLVLV [SEQ ID NO: 12], in test [3], the “Binding Experiment Data To A*02:01” value is reported as −6.148.

Regarding FYPEEISSM [SEQ ID NO: 3], the “Binding Experiment Data To A*24:02” value in test [2] was −7.664.

For GVPQIEVTF [SEQ ID NO: 1], the “Binding Experiment Data To A*02:06” value in test [1] is given as −5.13. The “Binding Experiment Data To A*24:02” value in test [2] was −6.451.

As for ITRARFEEL [SEQ ID NO: 10], in test [1], the “Binding Experiment Data To A*02:06” value is given as −5.58. Further, the “Binding Experiment Data To A*02:01” value in test [3] is reported as −4.326.

Consider KLLQDFFNG [SEQ ID NO: 4], for which the “Binding Experiment Data To A*02:06” value in test [1] is −5.268. Moreover, the “Binding Experiment Data To A*02:01” value in test [3] is given as −4.959.

In the case of LLLDVAPLS [SEQ ID NO: 8], the “Binding Experiment Data To A*02:06” value in test [1] is reported as −6.171. Besides, in test [3], the “Binding Experiment Data To A*02:01” value was −6.06.

Regarding MVLTKMKEI [SEQ ID NO: 6], the “Binding Experiment Data To A*02:06” value in test [1] is given as −5.533. Further, the “Binding Experiment Data To A*02:01” value in test [3] is on record as −4.586.

Take NLLGRFELS [SEQ ID NO: 11]: the “Binding Experiment Data To A*02:06” value in test [1] was −5.175. Also, the “Binding Experiment Data To A*02:01” value in test [3] is listed as −4.56.

With NQPGVLIQV [SEQ ID NO: 14], in test [1], the “Binding Experiment Data To A*02:06” value is listed as −6.417. The “Binding Experiment Data To A*02:01” value in test [3] is −5.91.

Consider SVTNAVITV [SEQ ID NO: 15], for which, in test [1], the “Binding Experiment Data To A*02:06” value is given as −5.594. Also, in test [2], the “Binding Experiment Data To A*24:02” value was −4.37. In addition, the “Binding Experiment Data To A*02:01” value in test [3] is recorded as −4.762.

Turning to VLVGGSTRI [SEQ ID NO: 5], in test [1], the “Binding Experiment Data To A*02:06” value was −5.07. Further, the “Binding Experiment Data To A*24:02” value in test [2] is reported as −6.173. In test [3], the “Binding Experiment Data To A*02:01” value is on record as −4.86.

On to YAFNMKSAV [SEQ ID NO: 13], for which, in test [1], the “Binding Experiment Data To A*02:06” value is −5.021. Also, the “Binding Experiment Data To A*02:01” value in test [3] is reported as −5.091.

Consider YGAAVQAAI [SEQ ID NO: 7], for which, in test [4], the “immunogenicity (in words)” value is listed as “high immunogenicity”. Besides, in test [1], the “binding to HLA-A*02:06 molecule (in words)” value was “strongly binds” and the “Binding Experiment Data To A*02:06” value is on record as −5.372. Besides, in test [2], the “binding to HLA-A*24:02 molecule (in words)” value is “strongly binds” and the “Binding Experiment Data To A*24:02” value is listed as −5.502. In test [3], the “binding to HLA-A*02:01 molecule (in words)” value is “strongly binds” and the “Binding Experiment Data To A*02:01” value is recorded as −4.904.

The record behind these values is patent US10537626B2, “HSP70-derived peptide, pharmaceutical composition for treating or preventing cancer using same, immunity inducer, and method for producing antigen presenting cell” (Cytlimic Inc., priority 2014, dated 2020).
